Measurements published in patent publication US20240306646A1, “BROAD SPECTRUM PATHOGEN CONTROL IN PLANTS” (APHEA. BIO NV, priority 2021, published 2024).

Key:
Format in all cases: cell-based
Fusarium graminearum = details: in vitro
Zymoseptoria tritici = tested on: Zymoseptoria tritici
Puccinia striiformis = test: In vitro antifungal screening of strain extracts and fractions

Takanawaene C
growth inhibition, Fusarium graminearum (Fusarium graminearum): 100% growth | growth inhibition, Zymospetoria tritici (Zymoseptoria tritici): 9% growth | growth inhibition, Puccinia striiformis (Puccinia striiformis): 100% inhibition
